Assay results from ChEMBL document CHEMBL1909046, “DrugMatrix in vitro pharmacology data”.

How the values were obtained:
[1] = DRUGMATRIX: Tumor Necrosis Factor (TNF), Non-Selective radioligand binding (ligand: [125I] TNF-alpha); format: cell membranes, Membrane; details: u-937; Not Active = under 50% inhibition at 10 µM
[2] = DRUGMATRIX: Glutamate, NMDA, Phencyclidine radioligand binding (ligand: [3H] TCP); format: cell membranes, Rattus norvegicus, Wistar, Cerebral cortex, Membrane; details: Not Active = under 50% inhibition at 10 µM
[3] = molecular target: T1, Cysteinyl leukotriene receptor 1 (Homo sapiens, UniProt Q9Y271); format: cell membranes, CHO-K1, Membrane; details: cho-k1; further: in other assays of this panel Not Active means under 50% inhibition at 10 µM
T1 sequence (Q9Y271 whole entry): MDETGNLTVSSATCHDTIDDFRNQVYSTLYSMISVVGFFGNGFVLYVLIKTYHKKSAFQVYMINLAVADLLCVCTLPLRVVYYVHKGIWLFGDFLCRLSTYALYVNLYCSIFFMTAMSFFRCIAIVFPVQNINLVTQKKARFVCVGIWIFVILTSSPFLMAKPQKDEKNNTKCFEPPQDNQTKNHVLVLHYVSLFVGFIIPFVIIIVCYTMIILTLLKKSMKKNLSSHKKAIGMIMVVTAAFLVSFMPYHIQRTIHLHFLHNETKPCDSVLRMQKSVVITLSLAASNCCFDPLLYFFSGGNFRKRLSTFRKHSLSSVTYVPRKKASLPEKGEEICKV

[4] = molecular target: Platelet-activating factor receptor (Homo sapiens, UniProt P25105); format: tissue-based; further: in other assays of this panel Not Active means under 50% inhibition at 10 µM
Progesterone receptor = molecular target: T2, Progesterone receptor (Bos taurus, UniProt Q690N0); experiment: DRUGMATRIX: Progesterone radioligand binding (ligand: [3H] R-5020); format: tissue-based, Uterus; details: Not Active = under 50% inhibition at 10 µM
T2 sequence (Q690N0 whole entry): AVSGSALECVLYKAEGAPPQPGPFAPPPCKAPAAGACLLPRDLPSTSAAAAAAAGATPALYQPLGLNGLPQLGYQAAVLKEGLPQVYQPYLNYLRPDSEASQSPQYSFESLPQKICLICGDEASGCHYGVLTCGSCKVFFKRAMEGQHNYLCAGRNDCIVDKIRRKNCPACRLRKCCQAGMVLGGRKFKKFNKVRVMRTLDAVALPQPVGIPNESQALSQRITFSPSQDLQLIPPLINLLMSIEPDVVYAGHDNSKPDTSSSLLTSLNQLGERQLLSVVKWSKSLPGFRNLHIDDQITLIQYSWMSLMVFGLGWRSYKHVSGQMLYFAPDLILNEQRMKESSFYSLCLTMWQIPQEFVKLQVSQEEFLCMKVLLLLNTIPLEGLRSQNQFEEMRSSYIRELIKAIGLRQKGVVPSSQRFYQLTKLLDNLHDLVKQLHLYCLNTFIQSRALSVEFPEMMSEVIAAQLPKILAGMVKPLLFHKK

Caspase-1 = molecular target: T3, Caspase-1 (Homo sapiens, UniProt P29466); set-up: species or system Escherichia coli;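 further: Caspase-1 enzyme inhibition assay with a peptide substrate; in other assays of this panel Not Active means under 50% inhibition at 10 µM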
T3 sequence (P29466 whole entry): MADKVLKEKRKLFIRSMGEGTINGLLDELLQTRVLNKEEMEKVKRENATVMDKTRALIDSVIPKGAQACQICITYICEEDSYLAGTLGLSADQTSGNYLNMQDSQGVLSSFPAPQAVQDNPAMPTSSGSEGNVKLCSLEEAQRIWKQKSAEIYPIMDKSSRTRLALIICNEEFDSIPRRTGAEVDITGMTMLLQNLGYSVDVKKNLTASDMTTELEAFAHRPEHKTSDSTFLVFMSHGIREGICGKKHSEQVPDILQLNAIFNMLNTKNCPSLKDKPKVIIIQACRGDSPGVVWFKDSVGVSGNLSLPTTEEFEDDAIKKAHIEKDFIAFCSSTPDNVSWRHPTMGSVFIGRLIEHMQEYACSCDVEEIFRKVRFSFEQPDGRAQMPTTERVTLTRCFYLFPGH

Adenosine receptor A1 = molecular target: T4, Adenosine receptor A1 (Homo sapiens, UniProt P30542); format: cell membranes, CHO, Membrane; details: cho;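 further: radioligand binding assay at the adenosine A1 receptor, with DPCPX serving as the labelled ligand; in other assays of this panel Not Active means under 50% inhibition at 10 µM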
T4 sequence (P30542 whole entry): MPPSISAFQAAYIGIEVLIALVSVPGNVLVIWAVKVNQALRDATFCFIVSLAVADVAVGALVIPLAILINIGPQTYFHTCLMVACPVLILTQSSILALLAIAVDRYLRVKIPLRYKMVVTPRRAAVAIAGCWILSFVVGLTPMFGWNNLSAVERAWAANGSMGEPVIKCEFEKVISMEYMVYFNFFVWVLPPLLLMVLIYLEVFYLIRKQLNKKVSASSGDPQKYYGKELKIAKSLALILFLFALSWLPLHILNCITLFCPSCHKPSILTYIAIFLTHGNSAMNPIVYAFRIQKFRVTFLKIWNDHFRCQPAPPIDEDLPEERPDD

Chain of Platelet-activating factor receptor (P25105 whole entry): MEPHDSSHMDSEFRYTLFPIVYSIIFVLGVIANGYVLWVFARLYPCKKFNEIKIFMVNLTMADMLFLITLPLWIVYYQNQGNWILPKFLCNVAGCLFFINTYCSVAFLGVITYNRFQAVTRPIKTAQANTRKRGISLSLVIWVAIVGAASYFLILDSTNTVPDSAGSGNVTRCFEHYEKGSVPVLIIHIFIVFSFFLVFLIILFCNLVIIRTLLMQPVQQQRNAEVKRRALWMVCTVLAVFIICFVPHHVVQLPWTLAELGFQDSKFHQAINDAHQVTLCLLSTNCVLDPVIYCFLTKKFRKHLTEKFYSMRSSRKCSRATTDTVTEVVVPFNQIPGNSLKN

CN(Cc1cc(Br)cc(Br)c1N)C1CCCCC1 [BROMHEXINE]
Not Active: IC50 [1] | Ki [1] | IC50 [2] | Ki [2] | IC50 [3] | IC50 [4] | IC50 (Progesterone receptor) | IC50 (Caspase-1) | IC50 (Adenosine receptor A1)

COPPER(II) OXIDE
Not Active: IC50 [1] | Ki [1] | IC50 [2] | Ki [2] | IC50 [3] | Ki [3] | IC50 [4] | Ki [4] | IC50 (Progesterone receptor) | Ki (Progesterone receptor) | IC50 (Caspase-1) | Ki (Caspase-1) | IC50 (Adenosine receptor A1) | Ki (Adenosine receptor A1)

CC(CN1c2ccccc2Sc2ccccc21)N(C)C (stereo not drawn) [PROMETHAZINE]
Not Active: IC50 [1] | Ki [1] | IC50 [2] | Ki [2] | IC50 [3] | IC50 [4] | IC50 (Progesterone receptor) | IC50 (Caspase-1) | IC50 (Adenosine receptor A1)

NC(N)=Nc1nc(CSCCC(N)=NS(N)(=O)=O)cs1 [FAMOTIDINE]
Not Active: IC50 [1] | Ki [1] | IC50 [2] | Ki [2] | IC50 [3] | IC50 [4] | IC50 (Progesterone receptor) | IC50 (Caspase-1) | IC50 (Adenosine receptor A1)

CC(C)(c1ccc(O)cc1)c1ccc(O)cc1 [BISPHENOL A]
Not Active: IC50 [1] | Ki [1] | IC50 [2] | Ki [2] | IC50 [3] | IC50 [4] | IC50 (Progesterone receptor) | IC50 (Caspase-1) | IC50 (Adenosine receptor A1)

c1ccc2sc(SSc3nc4ccccc4s3)nc2c1 [BENZOTHIAZYL DISULFIDE]
Not Active: IC50 [1] | Ki [1] | IC50 [2] | Ki [2] | IC50 [3] | IC50 [4] | IC50 (Progesterone receptor) | IC50 (Caspase-1) | IC50 (Adenosine receptor A1)

CC(=O)Nc1ccc2c(c1)Cc1ccccc1-2 [2-ACETYLAMINOFLUORENE]
Not Active: IC50 [1] | Ki [1] | IC50 [2] | Ki [2] | IC50 [3] | IC50 [4] | IC50 (Progesterone receptor) | IC50 (Caspase-1) | IC50 (Adenosine receptor A1)

Cc1cc(C(C)(C)C)c(O)c(C)c1CC1=NCCN1 [OXYMETAZOLINE]
Not Active: IC50 [1] | Ki [1] | IC50 [2] | Ki [2] | IC50 [3] | IC50 [4] | IC50 (Progesterone receptor) | IC50 (Caspase-1) | IC50 (Adenosine receptor A1)

c1ccc(Cn2ccnc2)cc1
Not Active: IC50 [1] | Ki [1] | IC50 [2] | Ki [2] | IC50 [3] | IC50 [4] | IC50 (Progesterone receptor) | IC50 (Caspase-1) | IC50 (Adenosine receptor A1)

Nc1ccc(Cc2ccc(N)cc2)cc1
Not Active: IC50 [1] | Ki [1] | IC50 [2] | Ki [2] | IC50 [3] | IC50 [4] | IC50 (Progesterone receptor) | IC50 (Caspase-1) | IC50 (Adenosine receptor A1)

CC(N)Cc1c[nH]c2ccc(OCc3cccs3)cc12 (stereo not drawn) [BW-723C86]
Not Active: IC50 [1] | Ki [1] | IC50 [2] | Ki [2] | IC50 [3] | IC50 [4] | IC50 (Progesterone receptor) | IC50 (Caspase-1) | IC50 (Adenosine receptor A1)

CCO [ALCOHOL]
Not Active: IC50 [1] | Ki [1] | IC50 [2] | Ki [2] | IC50 [3] | IC50 [4] | IC50 (Progesterone receptor) | IC50 (Caspase-1) | IC50 (Adenosine receptor A1)

CC[C@H]1OC(=O)[C@H](C)[C@@H](O[C@H]2C[C@@](C)(OC)[C@@H](O)[C@H](C)O2)[C@H](C)[C@@H](O[C@@H]2O[C@H](C)C[C@H](N(C)C)[C@H]2O)[C@](C)(O)C[C@@H](C)C(=O)[C@H](C)[C@@H](O)[C@]1(C)O [ERYTHROMYCIN]
Not Active: IC50 [1] | Ki [1] | IC50 [2] | Ki [2] | IC50 [3] | IC50 [4] | IC50 (Progesterone receptor) | IC50 (Caspase-1) | IC50 (Adenosine receptor A1)

O=C(O)CNCP(=O)(O)O [GLYPHOSATE]
Not Active: IC50 [1] | Ki [1] | IC50 [2] | Ki [2] | IC50 [3] | IC50 [4] | IC50 (Progesterone receptor) | IC50 (Caspase-1) | IC50 (Adenosine receptor A1)

Nc1nc(N)c2nc(CNc3ccc(C(=O)N[C@@H](CCC(=O)O)C(=O)O)cc3)cnc2n1 [AMINOPTERIN]
Not Active: IC50 [1] | Ki [1] | IC50 [2] | Ki [2] | IC50 [3] | IC50 [4] | IC50 (Progesterone receptor) | IC50 (Caspase-1) | IC50 (Adenosine receptor A1)

CC(C)Cn1cnc2c(N)nc3ccccc3c21 [IMIQUIMOD]
Not Active: IC50 [1] | Ki [1] | IC50 [2] | Ki [2] | IC50 [3] | IC50 [4] | IC50 (Progesterone receptor) | IC50 (Caspase-1) | IC50 (Adenosine receptor A1)

C[N+](C)(C)CCOP(=O)([O-])OC[C@H](O)CO
Not Active: IC50 [1] | Ki [1] | IC50 [2] | Ki [2] | IC50 [3] | IC50 [4] | IC50 (Progesterone receptor) | IC50 (Caspase-1) | IC50 (Adenosine receptor A1)

OC[C@H]1O[C@@H]2O[C@H]3[C@H](O)[C@@H](O)[C@@H](O[C@H]4[C@H](O)[C@@H](O)[C@@H](O[C@H]5[C@H](O)[C@@H](O)[C@@H](O[C@H]6[C@H](O)[C@@H](O)[C@@H](O[C@H]7[C@H](O)[C@@H](O)[C@@H](O[C@H]8[C@H](O)[C@@H](O)[C@@H](O[C@H]1[C@H](O)[C@H]2O)O[C@@H]8CO)O[C@@H]7CO)O[C@@H]6CO)O[C@@H]5CO)O[C@@H]4CO)O[C@@H]3CO [BETADEX]
Not Active: IC50 [1] | Ki [1] | IC50 [2] | Ki [2] | IC50 [3] | IC50 [4] | IC50 (Progesterone receptor) | IC50 (Caspase-1) | IC50 (Adenosine receptor A1)

CARBOXYMETHYLCELLULOSE
Not Active: IC50 [1] | Ki [1] | IC50 [2] | Ki [2] | IC50 [3] | Ki [3] | IC50 [4] | Ki [4] | IC50 (Progesterone receptor) | Ki (Progesterone receptor) | IC50 (Caspase-1) | Ki (Caspase-1) | IC50 (Adenosine receptor A1) | Ki (Adenosine receptor A1)

O=C(O)COC(=O)Cc1ccccc1Nc1c(Cl)cccc1Cl [ACECLOFENAC]
Not Active: IC50 [1] | Ki [1] | IC50 [2] | Ki [2] | IC50 [3] | IC50 [4] | IC50 (Progesterone receptor) | IC50 (Caspase-1) | IC50 (Adenosine receptor A1)

COc1ccc(C[C@H](N)C(=O)N[C@H]2[C@@H](O)[C@H](n3cnc4c(N(C)C)ncnc43)O[C@@H]2CO)cc1 [PUROMYCIN]
Not Active: IC50 [1] | Ki [1] | IC50 [2] | Ki [2] | IC50 [3] | IC50 [4] | IC50 (Progesterone receptor) | IC50 (Caspase-1) | IC50 (Adenosine receptor A1)

O=C(O)c1ccccc1 [BENZOIC ACID]
Not Active: IC50 [1] | Ki [1] | IC50 [2] | Ki [2] | IC50 [3] | IC50 [4] | IC50 (Progesterone receptor) | IC50 (Caspase-1) | IC50 (Adenosine receptor A1)
